Assay results published in ChEMBL document CHEMBL5154656, “High-Throughput Screening Platform in Postnatal Heart Cells and Chemical Probe Toolbox to Assess Cardiomyocyte Proliferation” (J Med Chem, 2022).
Active and inactive are the calls of the source. No cut-off for these calls is given here.

Assays:
Cardiac muscle cell [1] = experiment: Induction of cell proliferation in postnatal day 5 rat cardiac cells assessed as increase in total CM nuclei number; format: functional, cell-based
Cardiac Muscle Cell [2] = experiment: Induction of cell proliferation in postnatal day 1 transgenic mouse cardiac cells assessed as increase in total CM nuclei number; format: functional, cell-based
Cardiac Muscle Cell [3] = experiment: Induction of cell proliferation in postnatal day 1 transgenic mouse cardiac cells assessed as increase in bi-nucleation; format: functional, cell-based
Cardiac Muscle Cell [4] = experiment: Induction of cell proliferation in postnatal day 6 transgenic mouse cardiac cells assessed as increase in percentage of eGFP-anillin-positive cardiomyocytes; format: functional, cell-based
Cardiac Muscle Cell [5] = experiment: Induction of cell proliferation in postnatal day 6 CD1 mouse heart assessed as increase in number of cardiomyocyte by measuring mCherry+ cardiomyocyte nuclei at 0.001 to 1 uM; format: functional, cell-based; settings: dose 0.001-1 µM, DDE = dose-dependent effect
Cardiac Muscle Cell [6] = experiment: Induction of cell proliferation in postnatal day 6 mouse cardiac cells assessed as increase in total CM nuclei number; format: functional, cell-based
Cardiac Muscle Cell [7] = experiment: Induction of cell proliferation in postnatal day 1 transgenic mouse cardiac cells assessed as increase in percentage of eGFP-anillin-positive cardiomyocytes; format: functional, cell-based
[8] = Cytotoxicity against mouse Cardiomyocytes assessed as toxicity at > 1 uM; format: cell-based; settings: cardiac muscle cell
Cardiac muscle cell [9] = experiment: Cytotoxicity against rat Cardiomyocytes assessed as toxicity at > 1 uM; format: cell-based
Cardiac muscle cell [10] = experiment: Pro-proliferative activity in Wistar rat cardiac cells from P1 early postnatal developmental time points assessed as effect on cell number by measuring alphaAct/Ki67 cardiomyocyte nuclei at 0.33 to 10 uM by DAPI analysis; format: functional, cell-based; settings: dose 0.33-10 µM
Cardiac muscle cell [11] = experiment: Pro-proliferative activity in Wistar rat cardiac cells from P6 late postnatal developmental time points assessed as effect on cell number by measuring alphaAct/Ki67 cardiomyocyte nuclei at 0.33 to 10 uM by DAPI analysis; format: functional, cell-based; settings: dose 0.33-10 µM
[12] = molecular target: Mitogen-activated protein kinase 14 (Homo sapiens) (UniProt Q16539); experiment: Inhibition of P38alphaMAPK (unknown origin) relative to control; settings: concentration not given here
[13] = molecular target: Mitogen-activated protein kinase 11 (Homo sapiens) (UniProt Q15759); experiment: Inhibition of P38betaMAPK (unknown origin) relative to control; settings: concentration not given here
Cardiac muscle cell [14] = experiment: Induction of cell proliferation in postnatal day 5 rat cardiac cells assessed as increase in nuclear to cytoplasmic YAP ratio for 4 to 24 hrs by immunostaining analysis; format: functional, cell-based; settings: time 4-24 hrs
Cardiac muscle cell [15] = experiment: Induction of cell proliferation in postnatal day 6 rat cardiac cells assessed as increasing in number of cardiomyocytes; format: functional, cell-based; settings: dose 0.1-10 µM, DDE = dose-dependent effect
[16] = Cytotoxicity against mouse Cardiomyocytes assessed as toxicity at 0.33 to 10 uM; format: cell-based; settings: cardiac muscle cell, dose 0.33-10 µM
Cardiac muscle cell [17] = experiment: Cytotoxicity against rat Cardiomyocytes assessed as toxicity at 0.33 to 10 uM; format: cell-based; settings: dose 0.33-10 µM
Cardiac muscle cell [18] = experiment: Induction of cell proliferation in postnatal day 1 Wistar rat cardiac cells assessed as enhancement cardiomyocyte numbers by measuring alphaAct+; format: functional, cell-based
Cardiac Muscle Cell [19] = experiment: Induction of cell proliferation in postnatal day 1 CD1 mouse cardiac cells assessed as enhancement in cardiomyocyte numbers by measuring alphaAct+; format: functional, cell-based
Cardiac muscle cell [20] = experiment: Induction of cell proliferation in postnatal day 1 Wistar rat cardiac cells assessed as increase in cardiomyocyte numbers by measuring alphaAct+ at 0.33 to 5 uM; format: functional, cell-based; settings: dose 0.33-5 µM
Cardiac muscle cell [21] = experiment: Induction of cell proliferation in postnatal day 6 rat cardiac cells assessed as increase in CM numbers at 0.33 to 5 uM; format: functional, cell-based; settings: dose 0.33-5 µM
Cardiac Muscle Cell [22] = experiment: Induction of cell proliferation in postnatal day 6 mouse cardiac cells assessed as stimulation in pro-prolierative responses; format: functional, cell-based; settings: dose 0.33-10 µM, DDE = dose-dependent effect
Cardiac muscle cell [23] = experiment: Induction of cell proliferation in postnatal day 6 Wistar rat cardiac cells assessed as enhancement cardiomyocyte numbers by measuring alphaAct+; format: functional, cell-based
Cardiac Muscle Cell [24] = experiment: Induction of cell proliferation in postnatal day 6 CD1 mouse cardiac cells assessed as enhancement in cardiomyocyte numbers by measuring alphaAct+; format: functional, cell-based
Cardiac Muscle Cell [25] = experiment: Induction of cell proliferation in postnatal day 1 mouse cardiac cells assessed as increase in CM numbers at 0.33 to 5 uM; format: functional, cell-based; settings: dose 0.33-5 µM
Cardiac muscle cell [26] = experiment: Induction of cell proliferation in postnatal day 6 rat cardiac cells assessed as stimulation in pro-prolierative responses; format: functional, cell-based; settings: dose 0.1-10 µM, DDE = dose-dependent effect
Cardiac Muscle Cell [27] = experiment: Induction of cell proliferation in postnatal day 6 mouse cardiac cells assessed as increase in CM numbers at 0.33 to 5 uM; format: functional, cell-based; settings: dose 0.33-5 µM

Chain of Mitogen-activated protein kinase 14 (Homo sapiens) (Q16539 whole entry): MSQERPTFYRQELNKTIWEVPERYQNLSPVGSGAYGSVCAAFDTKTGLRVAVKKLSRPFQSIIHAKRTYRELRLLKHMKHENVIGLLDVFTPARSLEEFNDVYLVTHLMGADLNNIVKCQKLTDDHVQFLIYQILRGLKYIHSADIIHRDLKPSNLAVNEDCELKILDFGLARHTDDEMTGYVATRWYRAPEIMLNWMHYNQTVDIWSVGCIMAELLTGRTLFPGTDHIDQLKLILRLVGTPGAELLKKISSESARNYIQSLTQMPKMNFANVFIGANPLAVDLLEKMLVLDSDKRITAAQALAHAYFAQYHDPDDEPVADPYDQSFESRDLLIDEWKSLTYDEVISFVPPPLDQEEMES
Chain of Mitogen-activated protein kinase 11 (Homo sapiens) (Q15759 whole entry): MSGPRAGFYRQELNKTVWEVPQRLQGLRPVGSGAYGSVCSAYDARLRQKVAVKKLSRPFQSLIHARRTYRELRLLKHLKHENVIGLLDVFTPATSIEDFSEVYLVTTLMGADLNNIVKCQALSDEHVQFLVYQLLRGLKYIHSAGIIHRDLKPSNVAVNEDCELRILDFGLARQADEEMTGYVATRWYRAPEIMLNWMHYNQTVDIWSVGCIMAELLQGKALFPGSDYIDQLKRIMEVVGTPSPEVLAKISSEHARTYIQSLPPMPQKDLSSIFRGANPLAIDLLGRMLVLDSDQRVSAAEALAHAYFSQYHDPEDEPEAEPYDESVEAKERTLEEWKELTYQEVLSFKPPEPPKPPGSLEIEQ

In the case of `CN1CCN(Cc2ccc(NC(=O)Nc3ccc(Oc4cc(NC(=O)C5CC5)ncn4)cc3)cc2C(F)(F)F)CC1`, the Activity (Cardiac muscle cell [1]) is reported as “Active”, the Activity (Cardiac Muscle Cell [2]) is reported as “Active” and the Activity (Cardiac Muscle Cell [3]) is reported as “Active”. For the same compound, the Activity (Cardiac Muscle Cell [4]) was “Active”, the Activity (Cardiac Muscle Cell [5]) was “Dde” and the Activity (Cardiac Muscle Cell [6]) was “Active”. For the same compound, the Activity (Cardiac Muscle Cell [7]) was “Active”.

With `CCn1c(=O)[nH]c2ccccc21` the Activity [8] was “Toxic” and the Activity (Cardiac muscle cell [9]) was “Toxic”.

With `O=C1c2ccc(Nc3ccc(F)cc3F)cc2CCc2ccc(OC[C@H](O)CO)cc21` the Activity (Cardiac muscle cell [10]) was “Active”, the Activity (Cardiac muscle cell [11]) was “Active” and the inhibition [12] was 99.8%. For the same compound, the inhibition [13] was 99.8%.

For `Cc1cnc(-c2cnc(NCCNc3ccc(C#N)cn3)nc2-c2ccc(Cl)cc2Cl)[nH]1`, the Activity (Cardiac muscle cell [14]) was “Active” and the Activity (Cardiac muscle cell [15]) was “Dde”.

With `O=C(NCC(O)CO)c1ccc2c(c1)C(=O)c1ccc(Nc3ccc(F)cc3F)cc1CC2` (stereo not drawn) the Activity (Cardiac muscle cell [10]) was “Active” and the Activity (Cardiac muscle cell [11]) was “Active”.

For `CN1CCN(Cc2ccc(NC(=O)Cc3ccc(Oc4cc(NC(=O)C5CC5)ncn4)cc3)cc2C(F)(F)F)CC1`, the Activity (Cardiac muscle cell [1]) was “Active”, the Activity (Cardiac muscle cell [14]) was “Active” and the Activity (Cardiac Muscle Cell [2]) was “Active”. For the same compound, the Activity [16] was “Non-Toxic”, the Activity (Cardiac Muscle Cell [3]) was “Active” and the Activity (Cardiac muscle cell [17]) was “Non-Toxic”. The Activity (Cardiac Muscle Cell [4]) was “Active”, the Activity (Cardiac Muscle Cell [5]) was “Dde” and the Activity (Cardiac Muscle Cell [6]) was “Active”. The Activity (Cardiac Muscle Cell [7]) was “Active”.

For `COc1nccc(-c2c(-c3ccc(F)cc3)ncn2[C@H]2CC[C@H](O)CC2)n1`, the Activity (Cardiac muscle cell [18]) was “Active”, the Activity (Cardiac Muscle Cell [19]) was “Active” and the Activity (Cardiac muscle cell [20]) was “Active”. For the same compound, the Activity (Cardiac muscle cell [21]) was “Active”, the Activity (Cardiac Muscle Cell [22]) was “Dde” and the Activity [16] was “Non-Toxic”. For the same compound, the Activity (Cardiac muscle cell [17]) was “Non-Toxic”, the Activity (Cardiac muscle cell [23]) was “Active” and the Activity (Cardiac Muscle Cell [24]) was “Active”. The Activity (Cardiac Muscle Cell [25]) was “Active”, the Activity (Cardiac muscle cell [26]) was “Dde” and the Activity (Cardiac Muscle Cell [27]) was “Active”.

In the case of `Cc1c[nH]c(-c2cnc(NCCNc3ccc(C#N)cn3)nc2-c2ccc(Cl)cc2Cl)n1` [LADUVIGLUSIB], the Activity [16] is reported as “Non-Toxic” and the Activity (Cardiac muscle cell [17]) is reported as “Non-Toxic”.

With `O=C(OCCN1CCOCC1)c1ccc2c(c1)C(=O)c1ccc(Nc3ccc(F)cc3F)cc1CC2` the Activity (Cardiac muscle cell [10]) was “Active” and the Activity (Cardiac muscle cell [11]) was “Active”.
